Legend:
[1] = tested on: rats exposed to acute altitude hypoxia; test: Endothelial function (serum endothelin-1, nitric oxide) in rats exposed to acute altitude hypoxia; format: in vivo, Wistar rat; settings: for Endothelin-1 / Nitric oxide: 0.11 g/kg
Description: This method uses nitrate reductase specificity reduce NO^3− to NO^2−, and then determine the level of its concentration by displaying shades of color. Operate according to the kit instructions, measure the absorbance of each tube at a wavelength of 550 nm, and then calculate the content of nitric oxide of the sample to be tested according to the formula. To the coated microwells pre-coated with rat endothelin (endothelin-1) capture antibody, add in sequence specimens, standards, and HRP-labeled detection antibody, and then incubate and wash thoroughly. Use a substrate TMB for color development. TMB is converted into blue under the catalysis of peroxidase and converted into the final yellow color under the action of acid. The color intensity is positively correlated with the rat endothelin (endothelin-1) in the sample.

[2] = tested on: rats exposed to acute altitude hypoxia; test: Liver function of rats exposed to acute altitude hypoxia; format: in vivo, Wistar rat
Description: (§1) Select healthy Wistar rats weight 160-200 g, half female and half male. After feeding for 3 days, these Wistar rats are randomly divided into ten groups according to their body weight, each group has 16±2 rats. The groups are divided as follows: five groups of the hypoxic exposure drug test group, respectively, are given 0.91 mg/kg, 1.83 mg/kg, 3.66 mg/kg, 7.31 mg/kg, and 14.63 mg/kg drugs. […] After continuous intragastric administration for 7 days, the animals in the hypoxic exposure group are simultaneously put into the decompression and hypoxia compound experimental chamber, the hatch is closed, and the pressure is reduced at a speed of 10 m/s. After being raised to an altitude of 6000 m and maintained for 8 hours, the speed in 10 m/s drops is reduced to normal altitude, open the hatch, and then take out the animal, collect blood samples (after standing for 1 hour, the supernatant is centrifuged and stored at −20° C.), and liver tissue samples. Detection indicator includes body weight, serum blood glucose, ATP, lactic acid, endothelin, nitric oxide, SOD, CO, MDA related to oxidative stress, and total protein, albumin, triglycerides, total cholesterol, high-density lipoprotein cholesterol, low-density lipoprotein cholesterol, glutamic pyruvic transaminase, total bilirubin, gluamic oxalacetic transaminase, serum urea nitrogen, creatinine, uric acid, lactate dehydrogenase, creatine kinase, α-hydroxybutyrate dehydrogenase; liver ATP, hepatic glycogen. Except that the formal oxygen control animal group is not put into the decompression and hypoxia compound experimental chamber, other experimental conditions and detection indicators are the same.
(§2) Measure blood glucose, total protein, albumin, triglycerides, total cholesterol, high-density lipoprotein cholesterol, low-density lipoprotein cholesterol, glutamic-pyruvic transaminase, total bilirubin, glutamic oxalacetic transaminase, serum urea nitrogen, creatinine, uric acid, lactate dehydrogenase, creatine kinase, α-hydroxybutyrate dehydrogenase, blood homocysteine by using an automatic blood biochemical analyzer.

[3] = tested on: rats exposed to acute altitude hypoxia; test: Serum homocysteine in rats exposed to acute altitude hypoxia; format: in vivo, Wistar rat; settings: for Serum homocysteine: 0.11 g/kg
Description: as §1, §2

[4] = tested on: mice exposed to high altitude hypoxia; test: Exhaustive swimming experiment in mice exposed to high altitude hypoxia (6000 m); format: in vivo, Kunming mice
Description: Select healthy male Kunming mice weight 18-22 g.

[5] = tested on: rats with acute altitude hypoxia injury; test: Oxidative stress indexes of rats with acute altitude hypoxia injury; format: in vivo, Wistar rat
Description: Operate according to the instructions, and then measure the absorbance value of each tube, and afterwards calculate the content of malondialdehyde in the sample to be tested according to the formula. […] The latter oxidizes hydroxylamine to form nitrite. It appears purplish red under the action of chromogenic agent. Measure its absorbance by a visible light spectrophotometer. When the measured sample contains superoxide dismutase, it has specific inhibitory effect on superoxide anion free radicals, make formed nitrite reduced. […] The superoxide dismutase activity in the tested sample can be calculated by formula calculation. […] The latter can form a stable complex with phenanthrophins and measure its antioxidant capacity by colorimetry. Operate according to the kit instructions, measure the absorbance of each tube at a wavelength of 520 nm, and then calculate the total antioxidant capacity in the sample to be tested according to the formula.

[6] = Mice weight before hypoxia tolerance test of simulated 10000 m altitude acute decompression; settings: 0.16 g/kg
[7] = female rats, hypoxia, 0.11 g/kg
[8] = female rats, normoxia, 0.11 g/kg
[9] = seven days, repeat experiment in male mice

SMILES: CC(=O)Nc1nnc(S(N)(=O)=O)s1 [Acetazolamide, reference compound]
- effect on serum endothelin-1 and nitric oxide ([1]; female rats after acute hypoxia exposure): no significant effects
- Endothelin-1 ([1]; female rats, hypoxia): 55.66 ± 6.39 ng/mL
- Nitric oxide ([1]; female rats, hypoxia): 4.96 ± 3.13 µmol/L
- effect on nitric oxide content ([1]; female rats, normoxia): no significant effects
- effect on serum endothelin-1 content ([1]; female rats, normoxia): can reduce
- Endothelin-1 ([1]; female rats, normoxia): 36.18 ± 2.31 ng/mL
- Nitric oxide ([1]; female rats, normoxia): 4.08 ± 0.88 µmol/L
- effect on serum endothelin-1 and nitric oxide ([1]; hypoxia exposed male rats): slight reduction
- Endothelin-1 ([1]; male rats, hypoxia): 42.41 ± 0.7 ng/mL
- Nitric oxide ([1]; male rats, hypoxia): 3.52 ± 1.25 µmol/L
- Glutamic oxalacetic transaminase [2, 7]: 73.20 ± 11.19 U
- Glutamic-pyruvic transaminase [2, 7]: 28.40 ± 2.30 U
- effect on glutamic-pyruvic transaminase and glutamic oxalacetic transaminase ([2]; female rats, normoxia): no significant effects
- Glutamic oxalacetic transaminase [2, 8]: 102.33 ± 11.02 U
- Glutamic-pyruvic transaminase [2, 8]: 41.67 ± 10.97 U
- effect on glutamic pyruvic transaminase and total bilirubin ([2]; hypoxia exposed male rats): no significant effects
- effect on serum glutamic oxalacetic transaminase ([2]; hypoxia exposed male rats): increasing
- Glutamic oxalacetic transaminase ([2]; male rats, hypoxia, 0.11 g/kg): 77.57 ± 6.80 U
- Glutamic-pyruvic transaminase ([2]; male rats, hypoxia, 0.11 g/kg): 44.00 ± 3.56 U
- Total bilirubin ([2]; male rats, hypoxia, 0.11 g/kg): 0.15 ± 0.16 µmol/L
- Serum homocysteine ([3]; female rats, hypoxia): 9.54 ± 0.98 µmol/L
- effect on serum homocysteine ([3]; female rats, normoxia): no significant effects
- Serum homocysteine ([3]; female rats, normoxia): 9.33 ± 1.16 µmol/L
- effect on serum homocysteine ([3]; hypoxia exposed female rats): no significant effects
- effect on serum homocysteine ([3]; hypoxia exposed male rats): have been not found
- Serum homocysteine ([3]; male rats, hypoxia): 11.13 ± 1.67 µmol/L
- start time of exhaustion swimming death ([4]; male mice, 6000 m): died earlier
- Exhausted swimming survival time ([4]; male mice, 6000 m, 7 days, acetazolamide positive drug control (0.16 g/kg)): 130.64 ± 79.46 min
- increasing rate of survival time ([4]; male mice, 6000 m, acetazolamide positive drug control (0.16 g/kg)): 2.10%
- effect on survival time after exhausting swimming / working ability under hypoxia ([4]; mice under low oxygen exposure): no effect
- Endo Dialdehyde [5, 7]: 13.09 ± 2.13 nmol/L
- Superoxide dismutase [5, 7]: 57.11 ± 3.40 U/ml
- Total antioxidants [5, 7]: 10.36 ± 0.81 U/ml
- Endo Dialdehyde [5, 8]: 14.12 ± 0.32 nmol/L
- Superoxide dismutase [5, 8]: 50.88 ± 3.34 U/ml
- Total antioxidants [5, 8]: 10.31 ± 0.20 U/ml
- effect on serum superoxide dismutase activity ([5]; hypoxia exposed female rats): increasing
- effect on serum total antioxidants and malondialdehyde ([5]; hypoxia exposed female rats): no significant effects
- effect on serum superoxide dismutase activity ([5]; hypoxia exposed male rats): increasing
- effect on serum total antioxidants and malondialdehyde ([5]; male rats): no significant effects
- Malonaldehyde ([5]; male rats, hypoxia, 0.11 g/kg): 3.24 ± 1.52 nmol/L
- Superoxide dismutase ([5]; male rats, hypoxia, 0.11 g/kg): 182.51 ± 4.46 U/ml
- Mice weight Female 1 day ([6]; administration for 14 days): 15.24 ± 0.89 g
- Mice weight Female 7 days ([6]; administration for 14 days): 19.35 ± 3.12 g
- Mice weight Male 1 day ([6]; administration for 14 days): 14.66 ± 1.52 g
- Mice weight Male 7 days ([6]; administration for 14 days): 16.29 ± 3.25 g
- Mice weight Male 14 days ([6]; administration for 14 days): 21.16 ± 3.61 g
- Mice weight Female ([6]; administration for three days): 17.80 ± 0.94 g
- Mice weight Male ([6]; administration for three days): 18.29 ± 0.85 g
- Mice weight Male 1 day [6, 9]: 19.53 ± 0.93 g
- Mice weight Male 7 days [6, 9]: 21.35 ± 2.47 g
- Mice weight Female ([6]; single dose test): 17.31 ± 1.22 g
- Mice weight Male ([6]; single dose test): 19.47 ± 0.57 g

From patent publication US20220023289A1, “Application Of Pyrroloquinoline Quinone In Preparation Of Medicament Used For Preventing And Treating Acute Altitude Sickness And Acute Altitude Hypoxia Injury” (priority 2018, published 2022)
